# Laboratory results published in patent US20140275063A1, “NEW ENZYME INHIBITOR COMPOUNDS” (PROXIMAGEN LIMITED, priority 2011, published 2014).
# Structures can show the parent of a compound that is named as a salt.
# Molecular target: T1, human SSAO (Homo sapiens, UniProt Q16853)
# T1 construct: made in house
# T1 sequence (Q16853 29-763 limits assumed): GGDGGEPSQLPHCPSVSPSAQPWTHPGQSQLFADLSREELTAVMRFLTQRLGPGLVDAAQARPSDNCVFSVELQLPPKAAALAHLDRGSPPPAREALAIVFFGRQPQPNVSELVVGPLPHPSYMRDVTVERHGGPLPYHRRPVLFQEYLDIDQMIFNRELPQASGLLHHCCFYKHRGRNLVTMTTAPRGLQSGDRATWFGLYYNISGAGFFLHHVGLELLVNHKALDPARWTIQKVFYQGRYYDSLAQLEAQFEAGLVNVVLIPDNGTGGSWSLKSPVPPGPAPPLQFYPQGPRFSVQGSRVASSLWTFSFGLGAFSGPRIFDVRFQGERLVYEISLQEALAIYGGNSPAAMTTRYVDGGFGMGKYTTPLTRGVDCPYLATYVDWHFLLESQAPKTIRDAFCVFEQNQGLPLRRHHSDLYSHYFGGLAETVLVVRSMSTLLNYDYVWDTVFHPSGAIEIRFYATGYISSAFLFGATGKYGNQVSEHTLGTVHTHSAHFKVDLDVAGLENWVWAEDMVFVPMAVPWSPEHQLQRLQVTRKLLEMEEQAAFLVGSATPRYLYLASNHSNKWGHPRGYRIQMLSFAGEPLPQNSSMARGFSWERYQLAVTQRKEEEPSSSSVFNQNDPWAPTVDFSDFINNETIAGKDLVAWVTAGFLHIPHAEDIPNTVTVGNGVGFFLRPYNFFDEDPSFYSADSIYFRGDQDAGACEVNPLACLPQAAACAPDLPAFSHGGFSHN
# Experiment: SSAO inhibitory activity (HRP-coupled hydrogen peroxide detection or 14C-benzaldehyde detection, benzylamine substrate)
# Type: biochemical
# Details: purified recombinantly expressed human SSAO, benzylamine as substrate, RT
# Experimental: All primary assays were performed at RT. with purified recombinantly expressed human SSAO. Enzyme was prepared essentially as described in Öhman et al. (Protein Expression and Purification 46 (2006) 321-331). In addition, secondary- and selectivity assays were performed using SSAO prepared from various tissues or purified rat recombinant SSAO. The enzyme activity was assayed with benzylamine as substrate by measuring either benzaldehyde production, using ^14C-labeled substrate, or by utilizing the production of hydrogen peroxide in a horseradish peroxidase (HRP) coupled reaction. Briefly, test compounds were dissolved in dimethyl sulfoxide (DMSO) to a concentration of 10 mM. Dose-response measurements were assayed by either creating 1:10 serial dilutions in DMSO to produce a 7 point curve or by making 1:3 serial dilutions in DMSO to produce 11 point curves. The top concentrations were adjusted depending on the potency of the compounds and subsequent dilution in reaction buffer yielded a final DMSO concentration ≦2%.
# In a horseradish peroxidase (HRP) coupled reaction, hydrogen peroxide oxidation of 10-acetyl-3,7-dihydroxyphenoxazine produced resorufin, which is a highly fluorescent compound (Zhout and Panchuk-Voloshina. Analytical Biochemistry 253 (1997) 169-174; Amplex® Red Hydrogen Peroxideperoxidase Assay kit, Invitrogen A22188). Enzyme and compounds in 50 mM sodium phosphate, pH 7.4 were set to pre-incubate in flat-bottomed microtiter plates for approximately 15 minutes before initiating the reaction by addition of a mixture of HRP, benzylamine and Amplex reagent. Benzylamine concentration was fixed at a concentration corresponding to the Michaelis constant, determined using standard procedures. Fluorescence intensity was then measured at several time points during 1-2 hours, exciting at 544 nm and reading the emission at 590 nm. For the human SSAO assay final concentrations of the reagents in the assay wells were: SSAO enzyme 1 μg/ml, benzylamine 100 μM, Amplex reagent 20 μM, HRP 0.1 U/mL and varying concentrations of test compound. The inhibition was measured as % decrease of the signal compared to a control without inhibitor (only diluted DMSO). The background signal from a sample containing no SSAO enzyme was subtracted from all data points. Data was fitted to a four parameter logistic model and IC50 values were calculated using the Graph Pad Prism 4 or XLfit 4 programs.
# SSAO activity was assayed using 14C-labeled benzylamine and analysed by measuring radioactive benzaldehyde. In a white 96-well optiplate (Packard), 20 μL of diluted test compound was pre-incubated at RT. with 20 μL SSAO enzyme for approximately 15 minutes with continuous agitation. All dilutions were made with PBS. The reaction was initiated by adding 20 μL of the benzylamine substrate solution containing [7-14C] Benzylamine hydrochloride (CFA589, GE Healthcare). The plate was incubated for 1 hour as above after which the reaction was stopped by acidification (10 μL 1 M HCl). Then 90 μL Micro Scint-E solution (Perkin-Elmer) was added to each well and the plate was continuously mixed for 15 minutes. Phase separation occurred instantly and activity was read in a Topcount scintillation counter (Perkin-Elmer). In the final reaction well, the human recombinant SSAO concentration was 10 μg/ml. In order to optimize sensitivity, the substrate concentration was decreased as compared to the HRP coupled assay in order to get a higher fraction of radioactive product. In the human SSAO assay, benzylamine concentration was 40 μM (0.2 μCi/mL). Data was analysed as above.
row,IC50 [nM],Structure (SMILES)
1,100 to 500,"CN1CCC(NC(=O)CC2COCCN2c2nn(-c3ccc(Cl)cc3)c3cnccc23)CC1 (centres unmarked) [Compound 57, 2-{4-[1-(4-Chlorophenyl)-1H-pyrazolo[3,4-c]pyridin-3-yl]morpholin-3-yl)-N-(1-methylpiperidin-4-yl)acetamide]"
2,100 to 500,"CN1CCC(CNC(=O)CC2COCCN2c2nn(-c3ccc(Cl)cc3)c3cnccc23)CC1 (centres unmarked) [Compound 58, 2-{4-[1-(4-Chlorophenyl)-1H-pyrazolo[3,4-c]pyridin-3-yl]morpholin-3-yl}-N-[(1-methylpiperidin-4-yl)methyl] acetamide]"
3,< 100,"NC(=O)NCC1CN(c2nn(-c3ccc(Cl)cc3)c3cnccc23)CCO1 (centres unmarked) [Compound 59, ({4-[1-(4-Chlorophenyl)-1H-pyrazolo[3,4-c]pyridin-3-yl]morpholin-2-yl}methyl)urea]"
4,< 100,"CNC(=O)NCC1CN(c2nn(-c3ccc(Cl)cc3)c3cnccc23)CCO1 (centres unmarked) [Compound 60, 1-({4-[1-(4-Chlorophenyl)-1H-pyrazolo[3,4-c]pyridin-3-yl]morpholin-2-yl}methyl)-3-methylurea]"
5,< 100,"O=C(NCc1nn[nH]n1)N1CCC(c2cn(-c3ccc(Cl)cc3)c3cnccc23)CC1 [Compound 61, 4-[1-(4-Chlorophenyl)-1H-pyrrolo[2,3-c]pyridin-3-yl]-N-(2H-1,2,3,4-tetrazol-5-ylmethyl)piperidine-1-carboxamide; trifluoroacetic acid]"
6,< 100,"O=C(NC(c1nn[nH]n1)C1CC1)N1CCC(c2cn(-c3ccc(Cl)cc3)c3cnccc23)CC1 (centres unmarked) [Compound 62, 4-[1-(4-Chlorophenyl)-1H-pyrrolo[2,3-c]pyridin-3-yl]-N—[cyclopropyl(2H-1,2,3,4-tetrazol-5-yl)methyl]piperidine-1-carboxamide; trifluoroacetic acid]"
7,< 100,"O=C(NC1(c2nn[nH]n2)CCC1)N1CCC(c2cn(-c3ccc(Cl)cc3)c3cnccc23)CC1 [Compound 63, 4-[1-(4-Chlorophenyl)-1H-pyrrolo[2,3-c]pyridin-3-yl]-N-[1-(2H-1,2,3,4-tetrazol-5-yl)cyclobutyl]piperidine-1-carboxamide; trifluoroacetic acid]"
8,< 100,"O=C1NCCN1CCNc1nn(-c2ccc(Cl)cc2)c2cnccc12 [Compound 64, 1-(2-{[1-(4-Chlorophenyl)-1H-pyrazolo[3,4-c]pyridin-3-yl]amino}ethyl)imidazolidin-2-one]"

# More lines, now with the values behind:
row,Structure (SMILES),IC50 [nM]
1,"Clc1ccc(-n2nc(N3CCC(CN4CCOCC4)CC3)c3ccncc32)cc1 [Compound 48, 4-({1-[1-(4-Chlorophenyl)-1H-pyrazolo[3,4-c]pyridin-3-yl]piperidin-4-yl}methyl) morpholine dihydrochloride]",< 100
2,"Clc1ccc(-n2nc(N3CCC(CN4CCNCC4)CC3)c3ccncc32)cc1 [Compound 49, 1-({1-[1-(4-Chlorophenyl)-1H-pyrazolo[3,4-c]pyridin-3-yl]piperidin-4-yl}methyl)piperazine]",100 to 500
3,"Clc1ccc(-n2nc(N3CCC(CNCC4CCNCC4)CC3)c3ccncc32)cc1 [Compound 50, ({1-[1-(4-Chlorophenyl)-1H-pyrazolo[3,4-c]pyridin-3-yl]piperidin-4-yl}methyl)(piperidin-4-ylmethyl)amine]",100 to 500
4,"CN1CCC(CNC(=O)N2CCN(c3nn(-c4ccc(Cl)cc4)c4cnccc34)CC2)CC1 [Compound 51, 4-[1-(4-Chlorophenyl)-1H-pyrazolo[3,4-c]pyridin-3-yl]-N-[(1-methylpiperidin-4-yl)methyl]piperazine-1-carboxamide]",< 100
5,"CC(=O)OC1CCN(c2nn(-c3ccc(C)cc3)c3cnccc23)CC1 [Compound 52, 1-[1-(4-Methylphenyl)-1H-pyrazolo[3,4-c]pyridin-3-yl]piperidin-4-yl acetate]",< 100
6,"O=C(O)CC1COCCN1c1nn(-c2ccc(Cl)cc2)c2cnccc12 (centres unmarked) [Compound 53, 2-{4-[1-(4-Chlorophenyl)-1H-pyrazolo[3,4-c]pyridin-3-yl]morpholin-3-yl}acetic acid hydrochloride]",500 to 2500
7,"NCCNC(=O)CC1COCCN1c1nn(-c2ccc(Cl)cc2)c2cnccc12 (centres unmarked) [Compound 54, N-(2-Aminoethyl)-2-{4-[1-(4-chlorophenyl)-1H-pyrazolo[3,4-c]pyridin-3-yl]morpholin-3-yl}acetamide dihydrochloride]",< 100
8,"CN1CCN(C(=O)CC2COCCN2c2nn(-c3ccc(Cl)cc3)c3cnccc23)CC1 (centres unmarked) [Compound 55, 2-{4-[1-(4-Chlorophenyl)-1H-pyrazolo[3,4-c]pyridin-3-yl]morpholin-3-yl}-1-(4-methylpiperazin-1-yl)ethan-1-one]",< 100
9,"CN(C)[C@H]1CCN(C(=O)CC2COCCN2c2nn(-c3ccc(Cl)cc3)c3cnccc23)C1 (stereo partly drawn) [Compound 56, 2-{4-[1-(4-Chlorophenyl)-1H-pyrazolo[3,4-c]pyridin-3-yl]morpholin-3-yl}-1-[(3S)-3-(dimethylamino)pyrrolidin-1-yl] ethan-1-one]",< 100
